According to US20230416205A1, “COMPOUNDS, COMPOSITIONS, AND METHODS” (Denali Therapeutics Inc, priority 2020, published 2023):
Read-outs that look alike come from different tables or passages of the source.

Test system: NLRP3
Experiment: IL-1β secretion assay in PMA-differentiated, LPS/nigericin-stimulated THP-1 cells (384-well, ELISA read-out)
Type: cell-based, human
Experimental: Compounds as provided herein were tested in the following assay. Cell culture medium employed contained RPMI 1640 medium (89%), FBS (10%), Pen/Strep (1%), and 2-mercaptoethanol (0.05 mM). Freezing medium was made up of 90% FBS and 10% DMSO. THP-1 cells were removed from the liquid nitrogen and placed into a 37° C. water bath to thaw, until signs of ice dissipated. The cells were then added to 9 mL of warm cell culture medium and centrifuged for 5 minutes at 1000 rpm. The supernatant was discarded, and the cells were resuspended in new cell culture medium. THP-1 cells were then split and cultured in the cell culture medium, being passaged every 2-3 days with the cell density will be maintained between 5×10^5 and 1.5×10^6 viable cells/mL.
To freeze, cells were resuspended with fresh freezing medium, adjusting the cell density to 5×10^6 cells/mL. The cell suspension was partitioned into 1 mL aliquots per vial, and the vials were transferred to a −80° C. freezer. After one day at −80° C., the cell vials were transferred to liquid nitrogen freezer for storage.
PMA was dissolved in DMSO to make a stock solution at 5 mg/mL and stored in 10 μl aliquots at −20° C. for single use. PMA is added to normal growth medium. LPS was diluted with 1 mL of water solution to provide a 1 mg/mL stock solution and stored in 15 μl aliquots at −20° C. for single use. Nigericin is diluted in ice cold 100% ethanol to 5 mg/mL (6.7 mM) and stored in 75 μL aliquots at −20° C. for single use. Serum-free media contains RPMI 1640 medium (99%), Pen/Strep (1%), and 2-mercaptoethanol (0.05 mM). The two control conditions used to qualify and normalize test compound dose-response curves were as follows: High Control=25 ng/mL LPS, 5 μM Nigericin, 0.5% DMSO, Low Control=25 ng/mL, LPS, 0.5% DMSO.
THP-1 cells were diluted to provide a suspension at a concentration of 1.0×10^6 cells/mL with the total volume of suspension required to enable the desired number of assay plates. The growth media was supplemented with PMA (5 ng/mL final concentration) and the cells were incubated at 37° C. under a humidified atmosphere of 5% CO2 for 40 h.
All media was carefully aspirated from each culture flask. The cells were washed carefully with 1×DPBS. The cells were then briefly digested with trypsin LE for 5 minutes at 23° C., and immediately resuspended in cell growth media. After resuspension, the cells were centrifuged at 1000 rpm for 3 minutes and the supernatant was discarded. The cells were resuspended in DPBS and once again centrifuged at 1000 rpm for 5 minutes. The supernatant was discarded and the cell pellet was resuspended in serum-free media supplemented with LPS (25 ng/mL final concentration) to enable the distribution of 30K THP-1 cells within 45 μL of media into each well of 384-well PDL-coated plates. The 384-well plates were then incubated at 37° C. under a humidified atmosphere of 5% CO2 for 2 h. Following this period, test compounds were dispensed by Tecan across the desired concentration range with all wells normalized to a final 0.5% DMSO concentration. The plates were then incubated at 37° C. under a humidified atmosphere of 5% CO2 for 1 h. Following this period, 5 μL of the […] was added to each of the appropriate wells and plates were centrifuged at 1000 rpm for 30 seconds. The plates were the immediately reintroduced to the incubator at 37° C. under a humidified atmosphere of 5% CO2 for 2 h. After this time, 35 μL/well of supernatant was collected and transferred into v-bottom plate and centrifuged at 1000 rpm for 1 minute. These supernatant aliquots were analyzed using an IL-Iβ detection kit as described below. If needed, the test samples could be snap frozen and stored at −80° C. until analyzed.
To prepare each ELISA plate, capture antibody (mAb Mt175) was diluted with PBS to a final concentration of 2 μg/mL and then 20 μL of this solution was added to each well of the ELISA plate. Each plate was allowed to incubate overnight at 4° C.

[1] = Homo sapiens, THP-1, IL-1β secretion, PMA-differentiated THP-1 cells, LPS then nigericin stimulation, ELISA read at 450 nm, read-out: Activity
[2] = Table 4, IL-1β secretion, LPS/nigericin-stimulated THP-1 cells, read-out: IC50
[3] = IL-1β secretion, PMA-differentiated THP-1 cells, LPS then nigericin stimulation, ELISA read at 450 nm, read-out: Activity
[4] = Homo sapiens, THP-1, Table 4, IL-1β secretion, LPS/nigericin-stimulated THP-1 cells, read-out: IC50

## N#C[C@H]1C[C@@]12CN(CC(=O)Nc1ncc(F)cn1)C(=O)c1ccc(Br)cc12 (single isomer, unassigned) [Example 286, 2-[(2′s,4r)-6-bromo-2′-cyano-1-oxospiro[3H-isoquinoline-4,1′-cyclopropane]-2-yl]-N-(5-fluoropyrimidin-2-yl)acetamide]
[1]
  IC50: < 10 µM
[2]
  IC50: 1.95 µM

## N#C[C@H]1C[C@@]12CN(CC(=O)Nc1ncc(F)cn1)C(=O)c1ccc(Br)cc12 (single isomer, unassigned) [Example 287, 2-[(2′s,4r)-6-bromo-2′-cyano-1-oxospiro[3H-isoquinoline-4,1′-cyclopropane]-2-yl]-N-(5-fluoropyrimidin-2-yl)acetamide]
[3]
  IC50: < 10 µM
[2]
  IC50: 0.251 µM

## O=C(CN1CC2(CC2(F)F)c2c(ccc(Br)c2F)C1=O)Nc1ncc(F)cn1 (single isomer, unassigned) [Example 288, N-(5-fluoropyrimidin-2-yl)-2-[6-bromo-1′,1′,5-trifluoro-1-oxospiro[3H-isoquinoline-4,2′-cyclopropane]-2-yl]acetamide]
[1]
  IC50: 10 to 15 µM
[2]
  IC50: 15.4 µM

## O=C(CN1CC2(CC2(F)F)c2c(ccc(Br)c2F)C1=O)Nc1ncc(F)cn1 (single isomer, unassigned) [Example 289, N-(5-fluoropyrimidin-2-yl)-2-[6-bromo-1′,1′,5-trifluoro-1-oxospiro[3H-isoquinoline-4,2′-cyclopropane]-2-yl]acetamide]
[3]
  IC50: < 10 µM
[2]
  IC50: 0.027 µM

## O=C(CN1CC2(CC2(F)F)c2cc(Br)ccc2C1=O)Nc1ncc(F)cn1 (single isomer, unassigned) [Example 290, 2-[6-bromo-1′,1′-difluoro-1-oxospiro[3H-isoquinoline-4,2′-cyclopropane]-2-yl]-N-(5-fluoropyrimidin-2-yl)acetamide]
[1]
  IC50: < 10 µM
[2]
  IC50: 3.73 µM

## O=C(CN1CC2(CC2(F)F)c2cc(Br)ccc2C1=O)Nc1ncc(F)cn1 (single isomer, unassigned) [Example 291, 2-[6-bromo-1′,1′-difluoro-1-oxospiro[3H-isoquinoline-4,2′-cyclopropane]-2-yl]-N-(5-fluoropyrimidin-2-yl)acetamide]
[3]
  IC50: < 10 µM
[2]
  IC50: 0.037 µM

## O=C(CN1CC(CF)c2cc(Br)ccc2C1=O)Nc1ncc(F)cn1 (single isomer, unassigned) [Example 292, 2-[6-bromo-4-(fluoromethyl)-1-oxo-3,4-dihydroisoquinolin-2-yl]-N-(5-fluoropyrimidin-2-yl)acetamide]
[1]
  IC50: < 10 µM
[2]
  IC50: 3.94 µM

## O=C(CN1CC(CF)c2cc(Br)ccc2C1=O)Nc1ncc(F)cn1 (single isomer, unassigned) [Example 293, 2-[6-bromo-4-(fluoromethyl)-1-oxo-3,4-dihydroisoquinolin-2-yl]-N-(5-fluoropyrimidin-2-yl)acetamide]
[3]
  IC50: < 10 µM
[2]
  IC50: 0.134 µM

## O=C(CN1CC(C(F)F)c2c(ccc(Br)c2F)C1=O)Nc1ncc(F)cn1 (single isomer, unassigned) [Example 295, 2-[6-bromo-4-(difluoromethyl)-5-fluoro-1-oxo-3,4-dihydroisoquinolin-2-yl]-N-(5-fluoropyrimidin-2-yl)acetamide]
[1]
  IC50: 10 to 15 µM
[2]
  IC50: 12.8 µM

## O=C(CN1CC(C(F)F)c2c(ccc(Br)c2F)C1=O)Nc1ncc(F)cn1 (single isomer, unassigned) [Example 296, 2-[6-bromo-4-(difluoromethyl)-5-fluoro-1-oxo-3,4-dihydroisoquinolin-2-yl]-N-(5-fluoropyrimidin-2-yl)acetamide]
[3]
  IC50: < 10 µM
[2]
  IC50: 0.345 µM

## O=C(CN1CC(C(F)(F)F)c2c(ccc(Br)c2F)C1=O)Nc1ncc(F)cn1 (single isomer, unassigned) [Example 297, 2-[6-bromo-5-fluoro-1-oxo-4-(trifluoromethyl)-3,4-dihydroisoquinolin-2-yl]-N-(5-fluoropyrimidin-2-yl)acetamide]
[1]
  IC50: 10 to 15 µM
[2]
  IC50: 14.4 µM

## O=C(CN1CC(C(F)(F)F)c2c(ccc(Br)c2F)C1=O)Nc1ncc(F)cn1 (single isomer, unassigned) [Example 298, 2-[6-bromo-5-fluoro-1-oxo-4-(trifluoromethyl)-3,4-dihydroisoquinolin-2-yl]-N-(5-fluoropyrimidin-2-yl)acetamide]
[3]
  IC50: < 10 µM
[2]
  IC50: 0.367 µM

## O=C(CN1CC(C(F)(F)F)c2cc(Br)ccc2C1=O)Nc1ncc(F)cn1 (single isomer, unassigned) [Example 299, 2-[6-bromo-1-oxo-4-(trifluoromethyl)-3,4-dihydroisoquinolin-2-yl]-N-(5-fluoropyrimidin-2-yl)acetamide]
[1]
  IC50: < 10 µM
[2]
  IC50: 0.096 µM

## O=C(CN1CC(C(F)(F)F)c2cc(Br)ccc2C1=O)Nc1ncc(F)cn1 (single isomer, unassigned) [Example 300, 2-[6-bromo-1-oxo-4-(trifluoromethyl)-3,4-dihydroisoquinolin-2-yl]-N-(5-fluoropyrimidin-2-yl)acetamide]
[3]
  IC50: < 10 µM
[2]
  IC50: 3.43 µM

## O=C(CN1CC2(CC2)c2c(ccc(C3C[C@H]3F)c2F)C1=O)Nc1ncc(F)cn1 (single isomer, unassigned) [Example 303, 2-[5-fluoro-6-[(1r,2r)-2-fluorocyclopropyl]-1-oxospiro[3H-isoquinoline-4-1′-cyclopropane]-2-yl]-N-(5-fluoropyrimidin-2-yl)acetamide]
[4]
  IC50: 1.44 µM

## O=C(CN1CC2(CC2)c2c(ccc(C3C[C@H]3F)c2F)C1=O)Nc1ncc(F)cn1 (single isomer, unassigned) [Example 304, 2-[5-fluoro-6-[(1r,2r)-2-fluorocyclopropyl]-1-oxospiro[3H-isoquinoline-4-1′-cyclopropane]-2-yl]-N-(5-fluoropyrimidin-2-yl)acetamide]
[2]
  IC50: 2.56 µM

## O=C(CN1CC2(CC2)c2c(ccc(C3C[C@@H]3F)c2F)C1=O)Nc1ncc(F)cn1 (single isomer, unassigned) [Example 305, 2-[5-fluoro-6-[(1r,2s)-2-fluorocyclopropyl]-1-oxospiro[3H-isoquinoline-4,1′-cyclopropane]-2-yl]-N-(5-fluoropyrimidin-2-yl)acetamide]
[4]
  IC50: 0.662 µM

## O=C(CN1CC2(CC2)c2c(ccc(C3C[C@@H]3F)c2F)C1=O)Nc1ncc(F)cn1 (single isomer, unassigned) [Example 306, 2-[5-fluoro-6-[(1r,2s)-2-fluorocyclopropyl]-1-oxospiro[3H-isoquinoline-4,1′-cyclopropane]-2-yl]-N-(5-fluoropyrimidin-2-yl)acetamide]
[2]
  IC50: 0.577 µM

## O=C(CN1CC2(CC2(F)F)c2c(ccc(Br)c2F)C1=O)Nc1ncc(Cl)cn1 (single isomer, unassigned) [Example 317, 2-[6-bromo-1′,1′,5-trifluoro-1-oxospiro[3H-isoquinoline-4,2′-cyclopropane]-2-yl]-N-(5-chloropyrimidin-2-yl)acetamide]
[2]
  IC50: 8.51 µM

## O=C(CN1CC2(CC2(F)F)c2c(ccc(Br)c2F)C1=O)Nc1ncc(Cl)cn1 (single isomer, unassigned) [Example 318, 2-[6-bromo-1′,1′,5-trifluoro-1-oxospiro[3H-isoquinoline-4,2′-cyclopropane]-2-yl]-N-(5-chloropyrimidin-2-yl)acetamide]
[2]
  IC50: 0.008 µM
